{"source": "ChEMBL document CHEMBL3351608", "about": "“2-Phenylindole and Arylsulphonamide: Novel Scaffolds Bactericidal against Mycobacterium tuberculosis” (ACS Med Chem Lett, 2014)", "key": {"[1]": {"assay": "Lipophilicity, log D of the compound", "assay_type": "physicochemical", "details": "octanol/water"}, "[2]": {"assay": "Aqueous solubility of the compound", "assay_type": "physicochemical", "details": "buffer"}, "[3]": {"tested_on": "Mycolicibacterium smegmatis", "assay": "Inhibition of oxidative phosphorylation in Mycobacterium smegmatis membrane vesicles assessed as inhibition of NADH driven ATP synthesis by luciferin/luciferase assay", "assay_type": "functional"}, "[4]": {"tested_on": "Streptococcus pneumoniae", "assay": "Antimicrobial activity against Streptococcus pneumoniae", "assay_type": "functional"}, "[5]": {"tested_on": "Pseudomonas aeruginosa", "assay": "Antimicrobial activity against Pseudomonas aeruginosa", "assay_type": "functional"}, "[6]": {"tested_on": "Klebsiella pneumoniae", "assay": "Antimicrobial activity against Klebsiella pneumoniae", "assay_type": "functional"}, "[7]": {"tested_on": "Mycobacterium tuberculosis", "assay": "Bactericidal activity against Mycobacterium tuberculosis H37Rv after 5 days", "assay_type": "functional", "details": "120 h"}, "[8]": {"biological_target": "T1, Enoyl-[acyl-carrier-protein] reductase [NADH] (Mycobacterium tuberculosis, UniProt P9WGR1)", "T1 sequence (P9WGR1 whole entry)": "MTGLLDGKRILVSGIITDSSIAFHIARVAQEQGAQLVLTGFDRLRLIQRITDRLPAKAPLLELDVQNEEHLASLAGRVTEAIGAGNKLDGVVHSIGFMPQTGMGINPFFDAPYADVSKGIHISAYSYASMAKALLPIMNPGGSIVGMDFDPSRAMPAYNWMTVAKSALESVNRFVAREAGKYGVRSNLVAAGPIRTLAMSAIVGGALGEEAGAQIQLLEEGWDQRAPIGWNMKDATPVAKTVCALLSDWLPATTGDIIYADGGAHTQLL", "description": "Inhibition of Mycobacterium tuberculosis InhA using dodecyl coA as substrate by LC-MS/MS analysis"}, "[9]": {"biological_target": "DNA gyrase subunit A/DNA gyrase subunit B (Mycobacterium tuberculosis (strain ATCC 25618 / H37Rv), UniProt P9WG45+P9WG47)", "sequence (P9WG45 whole entry)": "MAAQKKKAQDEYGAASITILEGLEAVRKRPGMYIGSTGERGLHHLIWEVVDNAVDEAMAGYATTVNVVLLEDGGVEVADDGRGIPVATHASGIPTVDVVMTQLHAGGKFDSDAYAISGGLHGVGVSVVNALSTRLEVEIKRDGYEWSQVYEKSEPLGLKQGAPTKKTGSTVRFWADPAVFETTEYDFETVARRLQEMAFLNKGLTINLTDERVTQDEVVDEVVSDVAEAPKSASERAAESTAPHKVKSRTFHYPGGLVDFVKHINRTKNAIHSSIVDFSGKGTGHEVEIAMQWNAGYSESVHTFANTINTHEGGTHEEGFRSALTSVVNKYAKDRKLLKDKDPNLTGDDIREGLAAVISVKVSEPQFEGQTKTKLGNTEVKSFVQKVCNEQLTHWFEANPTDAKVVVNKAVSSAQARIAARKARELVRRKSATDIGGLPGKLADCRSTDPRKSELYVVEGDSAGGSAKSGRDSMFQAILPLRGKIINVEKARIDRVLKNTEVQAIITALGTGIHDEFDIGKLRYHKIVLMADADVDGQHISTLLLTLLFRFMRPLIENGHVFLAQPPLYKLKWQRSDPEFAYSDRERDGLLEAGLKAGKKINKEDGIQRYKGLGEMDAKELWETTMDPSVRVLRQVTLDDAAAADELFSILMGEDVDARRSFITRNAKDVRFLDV", "sequence (P9WG47 whole entry)": "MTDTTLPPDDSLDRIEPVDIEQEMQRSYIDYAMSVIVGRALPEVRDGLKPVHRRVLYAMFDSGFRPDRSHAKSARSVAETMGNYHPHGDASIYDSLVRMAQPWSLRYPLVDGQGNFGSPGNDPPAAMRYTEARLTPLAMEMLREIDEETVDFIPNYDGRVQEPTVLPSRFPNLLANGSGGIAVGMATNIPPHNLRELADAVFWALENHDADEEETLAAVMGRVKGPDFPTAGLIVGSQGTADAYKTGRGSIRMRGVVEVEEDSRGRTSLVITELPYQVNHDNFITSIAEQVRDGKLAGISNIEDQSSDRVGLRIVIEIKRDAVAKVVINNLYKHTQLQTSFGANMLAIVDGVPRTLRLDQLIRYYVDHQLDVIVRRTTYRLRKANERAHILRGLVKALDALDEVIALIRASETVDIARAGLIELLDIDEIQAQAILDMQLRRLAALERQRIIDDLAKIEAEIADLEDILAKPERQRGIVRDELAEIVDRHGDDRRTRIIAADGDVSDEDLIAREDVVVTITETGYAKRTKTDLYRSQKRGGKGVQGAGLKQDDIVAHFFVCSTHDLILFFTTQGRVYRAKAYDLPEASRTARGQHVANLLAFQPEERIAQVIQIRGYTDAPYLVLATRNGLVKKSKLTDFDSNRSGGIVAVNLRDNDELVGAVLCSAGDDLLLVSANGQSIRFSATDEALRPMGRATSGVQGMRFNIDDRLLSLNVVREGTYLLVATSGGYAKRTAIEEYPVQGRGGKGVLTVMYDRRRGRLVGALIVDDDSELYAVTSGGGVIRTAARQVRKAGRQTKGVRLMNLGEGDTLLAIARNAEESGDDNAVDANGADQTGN", "description": "Inhibition of Mycobacterium tuberculosis DNA gyrase-mediated relaxed pBR322 DNA supercoiling by gel electrophoresis"}, "[10]": {"tested_on": "Staphylococcus aureus", "assay": "Antimicrobial activity against Staphylococcus aureus", "assay_type": "functional"}, "[11]": {"tested_on": "Mycobacterium tuberculosis", "assay": "Bactericidal activity against hypoxia induced nonreplicating persistent Mycobacterium tuberculosis H37Rv assessed as concentration required to reduce >/= 2 log10 CFU/ml after 7 days", "assay_type": "functional"}, "[12]": {"tested_on": "Mycobacterium tuberculosis", "assay_type": "functional", "details": "120 h"}, "[13]": {"tested_on": "Escherichia coli", "assay": "Antimicrobial activity against Escherichia coli", "assay_type": "functional"}, "[14]": {"tested_on": "Haemophilus influenzae", "assay": "Antimicrobial activity against Haemophilus influenzae", "assay_type": "functional"}, "[15]": {"tested_on": "Mycobacterium tuberculosis", "assay": "Bactericidal activity against Mycobacterium tuberculosis H37Rv infected in human THP1 cells assessed as reduction in CFU at 1 to 4 times MIC by time-kill method", "assay_type": "functional, THP-1"}, "[16]": {"tested_on": "Mycobacterium tuberculosis", "assay": "microbe, parasite or virus in culture", "details": "120 h", "description": "Antimicrobial activity against Mycobacterium tuberculosis assessed as growth inhibition after 5 days by microdilution method"}, "[17]": {"tested_on": "Mycobacterium tuberculosis", "assay": "microbe, parasite or virus in culture", "details": "H37Rv, 120 h", "description": "Antimicrobial activity against wild-type Mycobacterium tuberculosis H37Rv assessed as growth inhibition after 5 days by microdilution method"}, "[18]": {"assay": "Cytotoxicity against human THP1 cells assessed as cell viability after 72 hrs by resazurin staining-based fluorimetric analysis", "details": "THP-1 cells"}}, "note": "pIC50: −log10 of the molar value."}
{"smiles": "O=S(=O)(NC1CCN(Cc2ccncc2)CC1)c1ccc(-n2cccn2)cn1", "values": [{"measurement": "logD", "setting": "[1]", "value": 1.7}, {"measurement": "solubility", "setting": "[2]", "value": 1000, "unit": "µM"}]}
{"smiles": "COc1nc2ccc(Br)cc2cc1[C@@H](c1ccccc1)[C@@](O)(CCN(C)C)c1cccc2ccccc12", "note": "[BEDAQUILINE]", "values": [{"measurement": "pIC50", "setting": "[3]", "value": 9.00}]}
{"smiles": "COCCN(C1CCN(Cc2c(-c3ccccc3)[nH]c3c(C)cccc23)C1)S(C)(=O)=O", "note": "(stereo not drawn)", "values": [{"measurement": "MIC", "setting": "[4]", "value": "> 200", "unit": "µM"}, {"measurement": "MIC", "setting": "[5]", "value": "> 200", "unit": "µM"}, {"measurement": "logD", "setting": "[1]", "value": 3}, {"measurement": "solubility", "setting": "[2]", "value": 5.4, "unit": "µM"}, {"measurement": "MIC", "setting": "[6]", "value": "> 200", "unit": "µM"}, {"measurement": "MBC", "setting": "[7]", "value": 3.8, "unit": "µM"}, {"measurement": "pIC50", "setting": "[8]", "value": "< 4.00"}, {"measurement": "pIC50", "setting": "[9]", "value": "< 4.00"}, {"measurement": "MIC", "setting": "[10]", "value": "> 200", "unit": "µM"}, {"measurement": "Activity", "setting": "[11]", "value": 3.1, "unit": "µM"}, {"measurement": "MIC", "setting": "[12]", "value": 0.8, "unit": "µM"}, {"measurement": "MIC", "setting": "[13]", "value": "> 200", "unit": "µM"}, {"measurement": "MIC", "setting": "[14]", "value": "> 200", "unit": "µM"}, {"measurement": "fold change (FC)", "setting": "[15]", "value": 1.5}, {"measurement": "MIC", "setting": "[16]", "value": 0.8, "unit": "µM"}, {"measurement": "MIC", "setting": "[17]", "value": 0.8, "unit": "µM"}, {"measurement": "pIC50", "setting": "[3]", "value": 4.81}, {"measurement": "CC50 at 72 h", "setting": "[18]", "value": "> 64", "unit": "µM"}]}
{"smiles": "Cc1cc(-n2cccn2)ccc1S(=O)(=O)NC1CCN(Cc2ccncc2)CC1", "values": [{"measurement": "MIC", "setting": "[4]", "value": "> 200", "unit": "µM"}, {"measurement": "MIC", "setting": "[5]", "value": "> 200", "unit": "µM"}, {"measurement": "logD", "setting": "[1]", "value": 2.3}, {"measurement": "solubility", "setting": "[2]", "value": 66, "unit": "µM"}, {"measurement": "MIC", "setting": "[6]", "value": "> 200", "unit": "µM"}, {"measurement": "MBC", "setting": "[7]", "value": 1.6, "unit": "µM"}, {"measurement": "MIC", "setting": "[10]", "value": "> 200", "unit": "µM"}, {"measurement": "Activity", "setting": "[11]", "value": ">200", "unit": "µM"}, {"measurement": "MIC", "setting": "[12]", "value": 0.8, "unit": "µM"}, {"measurement": "MIC", "setting": "[13]", "value": "> 200", "unit": "µM"}, {"measurement": "MIC", "setting": "[14]", "value": "> 200", "unit": "µM"}, {"measurement": "fold change (FC)", "setting": "[15]", "value": 1.5}, {"measurement": "MIC", "setting": "[17]", "value": 0.8, "unit": "µM"}, {"measurement": "CC50 at 72 h", "setting": "[18]", "value": 32, "unit": "µM"}]}
{"smiles": "COCCN(C1CCN(Cc2c(-c3ccccc3)[nH]c3c(OC)cccc23)C1)S(C)(=O)=O", "note": "(stereo not drawn)", "values": [{"measurement": "logD", "setting": "[1]", "value": 2.8}, {"measurement": "solubility", "setting": "[2]", "value": 103, "unit": "µM"}]}
{"smiles": "Cc1cccc2c(CN3CCC(NS(C)(=O)=O)C3)c(-c3ccccc3)[nH]c12", "note": "(racemic)", "values": [{"measurement": "MIC", "setting": "[4]", "value": "> 200", "unit": "µM"}, {"measurement": "MIC", "setting": "[5]", "value": "> 200", "unit": "µM"}, {"measurement": "MIC", "setting": "[6]", "value": "> 200", "unit": "µM"}, {"measurement": "MBC", "setting": "[7]", "value": 1.6, "unit": "µM"}, {"measurement": "MIC", "setting": "[10]", "value": "> 200", "unit": "µM"}, {"measurement": "Activity", "setting": "[11]", "value": ">200", "unit": "µM"}, {"measurement": "MIC", "setting": "[12]", "value": 1.6, "unit": "µM"}, {"measurement": "MIC", "setting": "[13]", "value": "> 200", "unit": "µM"}, {"measurement": "MIC", "setting": "[14]", "value": "> 200", "unit": "µM"}, {"measurement": "MIC", "setting": "[17]", "value": 1.6, "unit": "µM"}, {"measurement": "CC50 at 72 h", "setting": "[18]", "value": 32, "unit": "µM"}]}
{"smiles": "NNC(=O)c1ccncc1", "note": "[ISONIAZID]", "values": [{"measurement": "MIC", "setting": "[16]", "value": "> 7.5", "unit": "µM"}, {"measurement": "MIC", "setting": "[17]", "value": 0.5, "unit": "µM"}]}
{"smiles": "Cc1cccc2c(CN3CCCC3)c(-c3ccccc3)[nH]c12", "values": [{"measurement": "logD", "setting": "[1]", "value": 1.8}, {"measurement": "solubility", "setting": "[2]", "value": 752, "unit": "µM"}]}
{"smiles": "O=S(=O)(NC1CCN(Cc2ccncc2)CC1)c1ccc(-n2cccn2)cc1", "values": [{"measurement": "MIC", "setting": "[4]", "value": "> 200", "unit": "µM"}, {"measurement": "MIC", "setting": "[5]", "value": "> 200", "unit": "µM"}, {"measurement": "logD", "setting": "[1]", "value": 2.6}, {"measurement": "solubility", "setting": "[2]", "value": 149, "unit": "µM"}, {"measurement": "MIC", "setting": "[6]", "value": "> 200", "unit": "µM"}, {"measurement": "MBC", "setting": "[7]", "value": 50, "unit": "µM"}, {"measurement": "pIC50", "setting": "[8]", "value": "< 4.00"}, {"measurement": "pIC50", "setting": "[9]", "value": "< 4.00"}, {"measurement": "MIC", "setting": "[10]", "value": "> 200", "unit": "µM"}, {"measurement": "Activity", "setting": "[11]", "value": 25, "unit": "µM"}, {"measurement": "MIC", "setting": "[12]", "value": 3.3, "unit": "µM"}, {"measurement": "MIC", "setting": "[13]", "value": "> 200", "unit": "µM"}, {"measurement": "MIC", "setting": "[14]", "value": "> 200", "unit": "µM"}, {"measurement": "MIC", "setting": "[16]", "value": 1.6, "unit": "µM"}, {"measurement": "MIC", "setting": "[17]", "value": 3.3, "unit": "µM"}, {"measurement": "pIC50", "setting": "[3]", "value": "< 4.15"}, {"measurement": "CC50 at 72 h", "setting": "[18]", "value": "> 64", "unit": "µM"}]}
{"smiles": "CO[C@H]1/C=C/O[C@@]2(C)Oc3c(C)c(O)c4c(O)c(c(/C=N/N5CCN(C)CC5)c(O)c4c3C2=O)NC(=O)/C(C)=C\\C=C\\[C@H](C)[C@H](O)[C@@H](C)[C@@H](O)[C@@H](C)[C@H](OC(C)=O)[C@@H]1C", "note": "[RIFAMPIN]", "values": [{"measurement": "MIC", "setting": "[16]", "value": 0.003, "unit": "µM"}, {"measurement": "MIC", "setting": "[17]", "value": 0.003, "unit": "µM"}]}
{"smiles": "CC1COC2(CCN(c3nc(=O)c4cc(C(F)(F)F)cc([N+](=O)[O-])c4s3)CC2)O1", "note": "(stereo not drawn)", "values": [{"measurement": "MIC", "setting": "[16]", "value": 0.01, "unit": "µM"}, {"measurement": "MIC", "setting": "[17]", "value": 0.01, "unit": "µM"}]}
